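Cultured in 96-well plates, cells were exposed to test compound for 48 hours across five concentrations. GI50 is the concentration that inhibits growth by half.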 The source made the active and inactive calls. No stated cut-off is given here; in the data, active = GI50 up to about 1.1 µM and inactive = higher.
Tests used:
Assay in all cases: DTP human tumour cell line panel, 48 h
786-0 = system: 786-0
EKVX = system: EKVX
IGROV-1 = system: IGROV-1
KM12 = system: KM12
M14 = system: M14
MCF7 = system: MCF7
MDA-N = system: MDA-N
NCI-H522 = system: NCI-H522
OVCAR-3 = system: OVCAR-3
OVCAR-5 = system: OVCAR-5
RXF 393 = system: RXF 393
SK-MEL-5 = system: SK-MEL-5
SNB-19 = system: SNB-19
SNB-75 = system: SNB-75
SW-620 = system: SW-620
TK-10 = system: TK-10
U-251 = system: U-251
UACC-257 = system: UACC-257
UACC-62 = system: UACC-62
HCC 2998 = system: HCC 2998

Row | SMILES | GI50 (786-0) | GI50 (EKVX) | GI50 (IGROV-1) | GI50 (KM12) | GI50 (M14) | GI50 (MCF7) | GI50 (MDA-N) | GI50 (NCI-H522) | GI50 (OVCAR-3) | GI50 (OVCAR-5) | GI50 (RXF 393) | GI50 (SK-MEL-5) | GI50 (SNB-19) | GI50 (SNB-75) | GI50 (SW-620) | GI50 (TK-10) | GI50 (U-251) | GI50 (UACC-257) | GI50 (UACC-62) | GI50 (HCC 2998)
1 | CCOC(=O)Cn1c(C(F)(F)F)nc2nc(Cl)c(Cl)nc21 | > 76.9 µM (inactive) | 10.5 µM (inactive) | 22.8 µM (inactive) | 15.3 µM (inactive) | 41.3 µM (inactive) | 23.3 µM (inactive) | 37.2 µM (inactive) | 20.8 µM (inactive) | 16.3 µM (inactive) | > 100 µM (inactive) | 27.8 µM (inactive) | 27.3 µM (inactive) | 34.4 µM (inactive) | 55.2 µM (inactive) | 54 µM (inactive) | 61.4 µM (inactive) | 33.5 µM (inactive) | 19.6 µM (inactive) | 24.7 µM (inactive) | –
2 | CCCCCCCCCCCCn1c(=O)cc(NCCCC)c2cc3c(NCCCC)cc(=O)n(CCCCCCCCCCCC)c3nc21 | > 100 µM (inactive) | – | – | > 100 µM (inactive) | > 100 µM (inactive) | > 100 µM (inactive) | > 100 µM (inactive) | > 100 µM (inactive) | > 100 µM (inactive) | – | – | > 100 µM (inactive) | > 100 µM (inactive) | > 100 µM (inactive) | – | > 100 µM (inactive) | > 100 µM (inactive) | > 100 µM (inactive) | > 100 µM (inactive) | > 100 µM (inactive)
3 | OCC(O)C(O)C(C=NNc1ncnc2ccc(Br)cc12)=NNc1ncnc2ccc(Br)cc12 (centres undefined) | 1.14 µM (inactive) | 0.581 µM (active) | 1.45 µM (inactive) | 5.7 µM (inactive) | 3.48 µM (inactive) | 0.479 µM (active) | 5.06 µM (inactive) | 0.404 µM (active) | 0.344 µM (active) | 5.13 µM (inactive) | – | 1.22 µM (inactive) | 6.04 µM (inactive) | 5.82 µM (inactive) | – | 13.2 µM (inactive) | 1.28 µM (inactive) | 3.52 µM (inactive) | – | –
4 | CN(C(=O)C1=CCC2(CC1)OCCO2)c1ccccc1I | > 100 µM (inactive) | > 100 µM (inactive) | > 100 µM (inactive) | > 100 µM (inactive) | > 100 µM (inactive) | > 100 µM (inactive) | > 100 µM (inactive) | > 100 µM (inactive) | > 100 µM (inactive) | > 100 µM (inactive) | – | > 100 µM (inactive) | > 100 µM (inactive) | > 100 µM (inactive) | > 100 µM (inactive) | > 100 µM (inactive) | > 100 µM (inactive) | > 100 µM (inactive) | > 100 µM (inactive) | > 100 µM (inactive)
